This note sets out measurements from patent US20240254119A1 (THIRD HARMONIC BIO, INC., priority 2022, published 2024).

The target of one data set is T1, wtKIT (Homo sapiens, UniProt P10721).
T1 construct: 1888289AM in the reaction mixtures
The data set is described as follows: Caliper biochemical assay, wtKIT. To be noted: Table 6, read-out: KIT Biochemical IC50 avg. In short, it runs like this:
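Enzyme (5.0 nM wtKIT), 1 μM FAM-labelled peptide, 400 μM ATP and 10 mM MnCl2 in HEPES pH 7.5 with 1% DMSO, incubated 3 h at 25° C. EDTA quench; substrate and phosphoproduct separated by microfluidic electrophoresis and quantified by fluorescence.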

The next data set concerns the target T2, CSF-1R (Homo sapiens, UniProt P07333).
T2 construct: purchased Invitrogen PV3249 (lot 662393N)
The data set is described as follows: Caliper biochemical assay, CSF-1R. To be noted: Table 6. Put shortly:
(§1)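 Kinase, FAM-labelled peptide substrate, ATP and Mn^2+ incubated with compound for 3 h at 25° C, then quenched with EDTA buffer. Substrate and phosphorylated product separated by microfluidic electrophoresis and quantified by fluorescence intensity; no-enzyme wells define 100% inhibition.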

The next data set has as its target T3, PDGFRα (Homo sapiens, UniProt P16234).
T3 construct: purchased Millipore 14-467 (lot 26321_ACTI)
The data set is described as follows: Caliper biochemical assay, PDGFRα. To be noted: Table 6. In short, it runs like this:
as §1

The target of data set [1] is T4, BCRP (BCRP-MDCKII monolayer) (Homo sapiens, UniProt Q9UNQ0).
T4 construct: host or cells: MDCKII (canine kidney) cells
T4 sequence (Q9UNQ0 1-655): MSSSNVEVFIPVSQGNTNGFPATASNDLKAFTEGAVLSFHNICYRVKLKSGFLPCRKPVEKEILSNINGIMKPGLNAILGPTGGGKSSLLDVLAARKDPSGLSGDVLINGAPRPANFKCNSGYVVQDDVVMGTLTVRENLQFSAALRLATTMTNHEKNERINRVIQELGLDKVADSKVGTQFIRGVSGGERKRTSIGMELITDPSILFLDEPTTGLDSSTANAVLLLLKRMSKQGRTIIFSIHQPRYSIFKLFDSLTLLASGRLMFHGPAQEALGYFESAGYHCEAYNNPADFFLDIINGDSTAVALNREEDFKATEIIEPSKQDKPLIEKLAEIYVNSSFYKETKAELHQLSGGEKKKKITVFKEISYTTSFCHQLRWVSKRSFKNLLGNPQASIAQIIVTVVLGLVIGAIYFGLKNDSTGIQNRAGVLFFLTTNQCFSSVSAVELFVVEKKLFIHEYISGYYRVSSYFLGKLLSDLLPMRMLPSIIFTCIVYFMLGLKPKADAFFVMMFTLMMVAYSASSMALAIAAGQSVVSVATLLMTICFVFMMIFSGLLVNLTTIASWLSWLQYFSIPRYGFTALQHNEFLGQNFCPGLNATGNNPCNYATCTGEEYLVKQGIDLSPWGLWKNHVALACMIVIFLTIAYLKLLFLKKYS
The data set is described as follows: MDCKII-BCRP bidirectional transport assay. The format is in vitro ADME. To be noted: for MDCK-BCRP: Papp A-B: apical to basolateral. Put shortly:
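Bidirectional A→B and B→A transport across PreadyPort BCRP-MDCKII monolayers (days 12–15) was run in duplicate for 120 min at 37° C, 5% CO2 after a 15 min preincubation. Compound levels were measured by LC-MS/MS. Papp and recovery were calculated, with efflux ratio indicating transporter engagement.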

A short description of the next data set: Kinetic solubility assay. It counts as physicochemical. To be noted: kinetic solubility, 50 mM PB (pH 7.4), shaken 24 hours at RT. Put shortly: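 Test compounds from 10 mM DMSO stock were diluted in 50 mM phosphate buffer, pH 7.4, and shaken for 24 h at RT. After PTFE filtration and centrifugation, filtrate concentration was quantified by UPLC-UV/HPLC-UV against a standard curve.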

T3 sequence (P16234 24-1089): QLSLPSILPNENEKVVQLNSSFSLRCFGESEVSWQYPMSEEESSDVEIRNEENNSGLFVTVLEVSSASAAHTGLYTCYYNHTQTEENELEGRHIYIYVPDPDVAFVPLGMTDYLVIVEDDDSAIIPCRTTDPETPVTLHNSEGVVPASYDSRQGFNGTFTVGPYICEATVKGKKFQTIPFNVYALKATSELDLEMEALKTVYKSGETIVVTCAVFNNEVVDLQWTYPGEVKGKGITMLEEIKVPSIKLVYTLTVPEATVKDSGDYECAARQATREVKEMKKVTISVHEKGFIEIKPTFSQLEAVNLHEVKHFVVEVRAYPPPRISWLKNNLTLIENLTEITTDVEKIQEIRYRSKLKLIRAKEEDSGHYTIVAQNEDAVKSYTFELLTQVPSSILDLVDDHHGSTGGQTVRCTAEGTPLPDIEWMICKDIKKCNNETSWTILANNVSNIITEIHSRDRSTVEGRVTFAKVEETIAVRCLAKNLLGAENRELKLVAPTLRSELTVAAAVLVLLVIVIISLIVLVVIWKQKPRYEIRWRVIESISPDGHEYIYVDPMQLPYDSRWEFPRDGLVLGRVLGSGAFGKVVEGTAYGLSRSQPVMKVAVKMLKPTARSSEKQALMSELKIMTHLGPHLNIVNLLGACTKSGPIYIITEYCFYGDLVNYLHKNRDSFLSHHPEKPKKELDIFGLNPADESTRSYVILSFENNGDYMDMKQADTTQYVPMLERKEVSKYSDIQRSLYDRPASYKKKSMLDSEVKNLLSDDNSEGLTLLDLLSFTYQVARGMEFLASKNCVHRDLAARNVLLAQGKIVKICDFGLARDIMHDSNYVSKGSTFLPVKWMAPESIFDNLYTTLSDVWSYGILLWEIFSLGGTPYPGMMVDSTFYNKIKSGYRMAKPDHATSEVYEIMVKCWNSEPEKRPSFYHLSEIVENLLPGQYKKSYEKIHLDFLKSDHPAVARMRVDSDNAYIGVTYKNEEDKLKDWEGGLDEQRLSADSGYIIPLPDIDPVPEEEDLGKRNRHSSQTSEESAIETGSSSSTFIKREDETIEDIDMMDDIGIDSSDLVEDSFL
T2 sequence (P07333 20-972): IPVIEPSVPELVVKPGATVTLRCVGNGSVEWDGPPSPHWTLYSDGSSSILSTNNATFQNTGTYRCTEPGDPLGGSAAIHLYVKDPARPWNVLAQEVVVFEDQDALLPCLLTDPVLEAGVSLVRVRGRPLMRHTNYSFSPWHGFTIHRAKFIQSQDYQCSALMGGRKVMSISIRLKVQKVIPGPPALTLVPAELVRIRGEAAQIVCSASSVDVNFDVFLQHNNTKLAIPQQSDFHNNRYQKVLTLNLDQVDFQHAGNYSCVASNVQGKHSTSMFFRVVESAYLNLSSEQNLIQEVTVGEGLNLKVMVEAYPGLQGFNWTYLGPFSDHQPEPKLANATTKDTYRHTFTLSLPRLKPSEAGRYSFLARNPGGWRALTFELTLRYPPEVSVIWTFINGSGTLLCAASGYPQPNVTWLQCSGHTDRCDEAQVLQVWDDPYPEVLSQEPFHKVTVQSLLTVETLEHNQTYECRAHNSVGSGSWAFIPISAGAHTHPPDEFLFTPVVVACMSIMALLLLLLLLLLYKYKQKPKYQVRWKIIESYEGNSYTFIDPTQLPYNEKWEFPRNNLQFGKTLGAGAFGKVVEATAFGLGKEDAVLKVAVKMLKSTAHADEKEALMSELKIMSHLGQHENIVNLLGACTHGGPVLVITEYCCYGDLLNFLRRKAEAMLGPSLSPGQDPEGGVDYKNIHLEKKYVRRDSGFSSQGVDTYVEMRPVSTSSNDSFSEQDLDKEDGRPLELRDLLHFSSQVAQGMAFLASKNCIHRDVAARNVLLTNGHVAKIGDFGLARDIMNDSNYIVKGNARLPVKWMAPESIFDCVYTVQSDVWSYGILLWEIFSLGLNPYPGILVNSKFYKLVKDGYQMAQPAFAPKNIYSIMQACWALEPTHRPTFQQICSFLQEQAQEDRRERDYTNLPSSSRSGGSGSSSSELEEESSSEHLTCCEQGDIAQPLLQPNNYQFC
T1 sequence (P10721 26-976): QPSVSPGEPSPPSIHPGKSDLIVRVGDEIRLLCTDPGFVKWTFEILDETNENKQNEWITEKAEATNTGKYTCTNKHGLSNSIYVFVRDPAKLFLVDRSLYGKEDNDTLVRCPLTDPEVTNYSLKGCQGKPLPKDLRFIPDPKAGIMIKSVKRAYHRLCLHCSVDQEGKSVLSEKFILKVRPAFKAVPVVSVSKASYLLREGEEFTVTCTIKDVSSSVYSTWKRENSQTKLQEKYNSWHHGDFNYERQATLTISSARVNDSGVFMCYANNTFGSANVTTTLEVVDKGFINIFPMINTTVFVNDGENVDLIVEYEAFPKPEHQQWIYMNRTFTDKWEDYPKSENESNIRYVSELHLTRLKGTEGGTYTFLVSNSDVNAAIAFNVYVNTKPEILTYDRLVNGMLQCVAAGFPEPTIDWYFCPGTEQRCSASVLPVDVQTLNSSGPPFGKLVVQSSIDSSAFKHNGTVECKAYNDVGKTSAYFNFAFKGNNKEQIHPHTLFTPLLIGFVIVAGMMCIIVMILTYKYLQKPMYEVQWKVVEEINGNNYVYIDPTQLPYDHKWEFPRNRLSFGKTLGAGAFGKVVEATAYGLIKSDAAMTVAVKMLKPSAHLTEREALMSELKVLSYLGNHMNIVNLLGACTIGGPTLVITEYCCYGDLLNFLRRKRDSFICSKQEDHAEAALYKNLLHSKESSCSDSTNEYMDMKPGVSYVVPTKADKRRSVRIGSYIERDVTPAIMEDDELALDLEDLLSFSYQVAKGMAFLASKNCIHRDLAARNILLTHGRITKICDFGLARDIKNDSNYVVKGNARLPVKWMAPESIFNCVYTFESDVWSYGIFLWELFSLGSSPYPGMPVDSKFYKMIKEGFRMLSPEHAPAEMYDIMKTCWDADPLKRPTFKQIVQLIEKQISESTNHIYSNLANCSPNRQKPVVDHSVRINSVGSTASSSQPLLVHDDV

For the compound `Cc1ccc(-c2noc(C3(C)CC(F)(F)CN3)n2)cc1NC(=O)c1cnc2ccccn12` (racemic) [Compound I-328], the figures for the half-inhibitory concentration (IC50) on wtKIT, on CSF-1R and against PDGFRα were at most 50 nM, 50 to 500 nM and 500 to 5000 nM, respectively. For the same compound, the “MDCK-BCRP: Efflux Ratio” value in data set [1] worked out at 4.55. In data set [1], the “MDCK-BCRP: Papp A-B” value is on record as 6.06 10^−6 cm/s. For the same compound, the “Solubility (μM)” value in “Kinetic solubility assay” was “*** (a solubility greater than 2 μM and less than or equal to 10 μM)”.

For the compound `COC(=O)N1CC(c2nc(-c3ccc(C(F)F)c(NC(=O)c4cnc5ccccn45)c3)no2)C1` [Compound I-225], the 50% inhibitory concentration (IC50) – broadly, the concentration at which inhibition is half-maximal – is at most 50 nM at wtKIT, 50 to 500 nM at CSF-1R and 5000 to 30000 nM at PDGFRα. Further, in data set [1], the “MDCK-BCRP: Efflux Ratio” value came out at 3.27. For the same compound, in data set [1], the “MDCK-BCRP: Papp A-B” value is listed as 11.2 10^−6 cm/s. The “Solubility (μM)” value in “Kinetic solubility assay” is “** (a solubility greater than 10 μM and less than or equal to 50 μM)”.

Regarding `Cc1ccc(-c2noc([C@H]3C[C@@H]3F)n2)cc1NC(=O)c1cnc2cc(N3CCC3)ccn12` [Compound I-295], the IC50 at wtKIT, on CSF-1R and on PDGFRα was at most 50 nM each time. Besides, in data set [1], the “MDCK-BCRP: Efflux Ratio” value turned out to be 1.58. Moreover, the “MDCK-BCRP: Papp A-B” value in data set [1] was 6.12 10^−6 cm/s. Besides, the “Solubility (μM)” value in “Kinetic solubility assay” was “**** (a solubility less than or equal to 2 μM)”.

Regarding `Cc1ccc(-c2noc(C3CC(C)(F)C3)n2)cc1NC(=O)c1cnc2ccccn12` (stereo not drawn) [Compound I-387], the IC50 at wtKIT was at most 50 nM; at CSF-1R it was at most 50 nM; against PDGFRα, 50 to 500 nM. In addition, the “MDCK-BCRP: Efflux Ratio” value in data set [1] is recorded as 0.82. In addition, the “MDCK-BCRP: Papp A-B” value in data set [1] is 13.8 10^−6 cm/s. Besides, in the data set “Kinetic solubility assay”, the “Solubility (μM)” value was “*** (a solubility greater than 2 μM and less than or equal to 10 μM)”.

Turning to `Cc1ccc(-c2noc(C3CC(OCCF)C3)n2)cc1NC(=O)c1cnc2ccccn12` (stereo not drawn) [Compound I-369], the results for the IC50 at wtKIT, on CSF-1R and at PDGFRα were at most 50 nM, 50 to 500 nM and 500 to 5000 nM, respectively. In addition, the “MDCK-BCRP: Efflux Ratio” value in data set [1] is recorded as 1.62. Moreover, the “MDCK-BCRP: Papp A-B” value in data set [1] is recorded as 8.93 10^−6 cm/s. In addition, the “Solubility (μM)” value in the data set “Kinetic solubility assay” was “** (a solubility greater than 10 μM and less than or equal to 50 μM)”.
